Test results: patent US8183243B2, “Melanocortin receptor agonists” (LG Life Sciences Ltd., priority 2008, dated 2012)
Like-named read-outs stand apart in the source and are kept apart here.

Molecular target: T1, MC4R (Homo sapiens, UniProt P32245)
T1 construct: expressed in transfected cells; host or cells: HEK (Human Embryonic Kidney) permanent expression cell line HEK MC4R-Luc, co-expressing CRE-luciferase
Assay: MCR agonistic activity (luciferase assay / cAMP accumulation assay) on MC4R
Assay type: cell-based
Details: HEK cell lines expressing MC4R, not said which
Outline: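 HEK cells stably expressing MC4R with a CRE-luciferase reporter treated 5 hours at 37 °C with serially diluted agonist (≤1% DMSO); luminescence expressed relative to 10 nM NDP-MSH, EC50 at half-maximal signal. Alternatively, cAMP measured after 30 minutes with compound plus 500 μM IBMX by [3H]-cAMP competition binding.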

[1] = method A (CRE-luciferase) or B (cAMP accumulation), read-out: EC50 value, agonistic activity to MC4R (range per group of Examples)
[2] = specific activities of representative compounds, method A or B, read-out: EC50

T1 sequence (P32245 whole entry, species assumed): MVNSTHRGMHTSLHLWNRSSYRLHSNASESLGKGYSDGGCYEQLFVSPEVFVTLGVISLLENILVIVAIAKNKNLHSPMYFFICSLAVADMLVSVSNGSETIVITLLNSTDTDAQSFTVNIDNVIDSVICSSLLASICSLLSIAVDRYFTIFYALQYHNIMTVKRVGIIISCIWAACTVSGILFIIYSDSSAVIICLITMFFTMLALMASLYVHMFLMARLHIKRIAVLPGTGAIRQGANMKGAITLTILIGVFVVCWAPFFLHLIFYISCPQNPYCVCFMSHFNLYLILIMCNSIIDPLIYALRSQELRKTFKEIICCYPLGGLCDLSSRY

Row | Compound | EC50 [1] [nM] | EC50 [2] [nM]
1 | CN1CCN(C(=O)[C@@H]2C[C@H](N(C(=O)C(C)(C)CO)[C@H]3CC[C@@H](C)CC3)CN2C(=O)[C@@H]2CN(C(C)(C)C)C[C@H]2c2ccc(F)cc2F)CC1 [Example 20, N-{(3S,5S)-1-{[(3S,4R)-1-tert-butyl-4-(2,4-difluorophenyl)pyrrolidin-3-yl]carbonyl}-5-[(4-methylpiperazin-1-yl)carbonyl]pyrrolidin-3-yl}-3-hydroxy-2,2-dimethyl-N-(cis-4-methylcyclohexyl)propanamide] | 0.1 to 10 | 
2 | CCN1CCN(C(=O)[C@@H]2C[C@H](N(C(C)=O)C3CCC(C)(C)CC3)CN2C(=O)[C@@H]2CN(C(C)(C)C)C[C@H]2c2ccc(F)cc2F)CC1 [Example 6, N-{(3S,5S)-1-{[(3S,4R)-1-tert-butyl-4-(2,4-difluorophenyl)pyrrolidin-3-yl]carbonyl}-5-[(4-ethylpiperazin-1-yl)carbonyl]pyrrolidin-3-yl}-N-(4,4-dimethylcyclohexyl)acetamide] | 10 to 100 | 
3 | CN1CCN(C(=O)[C@@H]2C[C@H](N(C(=O)C(C)(C)C)c3ccc(F)cc3F)CN2C(=O)[C@@H]2CN(C(C)(C)C)C[C@H]2c2ccc(F)cc2F)CC1 [Example 82, N-{(3S,5S)-1-{[(3S,4R)-1-tert-butyl-4-(2,4-difluorophenyl)pyrrolidin-3-yl]carbonyl}-5-[(4-methylpiperazin-1-yl)carbonyl]pyrrolidin-3-yl}-N-(2,4-difluorophenyl)-2,2-dimethylpropanamide] | 0.1 to 10 | 
4 | CN1CCN(C(=O)[C@@H]2C[C@H](N(C(=O)[C@@H]3CCCO3)C3CCC(C)(C)CC3)CN2C(=O)[C@@H]2CN(C3CCOCC3)C[C@H]2c2ccc(Cl)cc2)CC1 [Example 41, (2S)-N-{(3S,5S)-1-{[(3S,4R)-4-(4-chlorophenyl)-1-(tetrahydro-2H-pyran-4-yl)pyrrolidin-3-yl]carbonyl}-5-[(4-methylpiperazin-1-yl)carbonyl]pyrrolidin-3-yl}-N-(4,4-dimethylcyclohexyl)tetrahydrofuran-2-carboxamide] | 0.1 to 10 | 3
5 | CN1CCN(C(=O)[C@@H]2C[C@H](N(C(=O)[C@@H]3CCCO3)[C@H]3CC[C@@H](C)CC3)CN2C(=O)[C@@H]2CN(c3ccccn3)C[C@H]2c2ccc(F)cc2F)CC1 [Example 68, (2S)-N-{(3S,5S)-1-{[(3S,4R)-4-(2,4-difluorophenyl)-1-pyridine-2-ylpyrrolidin-3-yl]carbonyl}-5-[(4-methylpiperazin-1-yl)carbonyl]pyrrolidin-3-yl}-N-(cis-4-methylcyclohexyl)tetrahydrofuran-2-carboxamide] | 0.1 to 10 | 
6 | CN1CCN(C(=O)[C@@H]2C[C@H](N(C(=O)C(C)(C)C)C3CCC(F)(F)CC3)CN2C(=O)[C@@H]2CN(C(C)(C)C)C[C@H]2c2ccc(Cl)cc2)CC1 [Example 26, N-{(3S,5S)-1-{[(3S,4R)-1-tert-butyl-4-(4-chlorophenyl)pyrrolidine-3-yl]carbonyl}-5-[(4-methylpiperazin-1-yl)carbonyl]pyrrolidin-3-yl}-N-(4,4-difluorocyclohexyl)-2,2-dimethylpropanamide] | 0.1 to 10 | 6
7 | CC1CCC(N(C(=O)C2CCCO2)C2CC(C(=O)N3CCN(C)CC3)N(C(=O)C3CN(c4cccnn4)CC3c3ccc(F)cc3F)C2)CC1 (centres unmarked) [Example 66] | 0.1 to 10 | 
8 | CN1CCN(C(=O)[C@@H]2C[C@H](N(C(=O)C(C)(C)CO)C3CCC(C)(C)CC3)CN2C(=O)[C@@H]2CN(C3CCOCC3)C[C@H]2c2ccc(Cl)cc2)CC1 [Example 49, N-{(3S,5S)-1-{[(3S,4R)-4-(4-chlorophenyl)-1-(tetrahydro-2H-pyran-4-yl)pyrrolidin-3-yl]carbonyl}-5-[(4-methylpiperazin-1-yl)carbonyl]pyrrolidin-3-yl}-N-(4,4-dimethylcyclohexyl)-3-hydroxy-2,2-dimethylpropanamide] | 0.1 to 10 | 
9 | CN1CCN(C(=O)[C@@H]2C[C@H](N(C(=O)C(C)(C)CO)[C@H]3CC[C@@H](C)CC3)CN2C(=O)[C@@H]2CN(C(C)(C)C)C[C@H]2c2ccc(Cl)cc2)CC1 [Example 19, N-{(3S,5S)-1-{[(3S,4R)-1-tert-butyl-4-(4-chlorophenyl)pyrrolidin-3-yl]carbonyl}-5-[(4-methylpiperazin-1-yl)carbonyl]pyrrolidin-3-yl}-3-hydroxy-2,2-dimethyl-N-(cis-4-methylcyclohexyl)propanamide] | 0.1 to 10 | 
10 | CC(=O)N([C@H]1C[C@H](C(=O)N2CCN(C)CC2)N(C(=O)[C@@H]2CN(C(C)(C)C)C[C@H]2c2ccc(F)cc2F)C1)[C@H]1CC[C@@H](C)CC1 [Example 38, N-{(3S,5R)-1-{[(3S,4R)-1-tert-butyl-4-(2,4-difluorophenyl)pyrrolidin-3-yl]carbonyl}-5-[(4-methylpiperazin-1-yl)carbonyl]pyrrolidin-3-yl}-N-(cis-4-methylcyclohexyl)acetamide] | 0.1 to 10 | 
11 | CC(C)N1CCN(C(=O)[C@@H]2C[C@H](N(C(=O)[C@@H]3CCCO3)[C@H]3CC[C@@H](C)CC3)CN2C(=O)[C@@H]2CN(C(C)(C)C)C[C@H]2c2ccc(Cl)cc2)CC1 [Example 23, (2S)-N-{(3S,5S)-1-{[(3S,4R)-1-tert-butyl-4-(4-chlorophenyl)pyrrolidin-3-yl]carbonyl}-5-[(4-isopropylpiperazin-1-yl)carbonyl]pyrrolidin-3-yl}-N-(cis-4-methylcyclohexyl)tetrahydrofuran-2-carboxamide] | 0.1 to 10 | 
12 | CC(C)N1CCN(C(=O)[C@H]2C[C@H](N(C(=O)[C@@H]3CCCO3)C3CCC(C)(C)CC3)CN2C(=O)[C@@H]2CN(C3CCOCC3)C[C@H]2c2ccc(F)cc2F)CC1 [Example 52, (2S)-N-{(3S,5R)-1-{[(3S,4R)-4-(2,4-difluorophenyl)-1-(tetrahydro-2H-pyran-4-yl)pyrrolidin-3-yl]carbonyl}-5-[(4-isopropylpiperazin-1-yl)carbonyl]pyrrolidin-3-yl}-N-(4,4-dimethylcyclohexyl)tetrahydrofuran-2-carboxamide] | 0.1 to 10 | 

Results, then the compound that gave them:

Row | EC50 [1] [nM] | EC50 [2] [nM] | Compound
13 | 0.1 to 10 |  | CN1CCN(C(=O)[C@@H]2C[C@H](N(C(=O)[C@@H]3CCCO3)[C@H]3CC[C@@H](C)CC3)CN2C(=O)[C@@H]2CN(c3ccc(C#N)cn3)C[C@H]2c2ccc(Cl)cc2)CC1 [Example 69, (2S)-N-{(3S,5S)-1-{[(3S,4R)-4-(4-chlorophenyl)-1-(5-cyanopyridine-2-yl)pyrrolidin-3-yl]carbonyl}-5-[(4-methylpiperazin-1-yl)carbonyl]pyrrolidin-3-yl}-N-(cis-4-methylcyclohexyl)tetrahydrofuran-2-carboxamide]
14 | 10 to 100 |  | CN1CCN(C(=O)[C@@H]2C[C@H](N(C(=O)[C@@H]3CCCO3)C3CCC(F)(F)CC3)CN2C(=O)[C@@H]2CN(C(C)(C)C)C[C@H]2c2ccc(Cl)cc2)CC1 [Example 31, (2S)-N-{(3S,5S)-1-{[(3S,4R)-1-tert-butyl-4-(4-chlorophenyl)pyrrolidin-3-yl]carbonyl}-5-[(4-methylpiperazin-1-yl)carbonyl]pyrrolidin-3-yl}-N-(4,4-difluorocyclohexyl)tetrahydrofuran-2-carboxamide]
15 | 100 to 1000 |  | CN1CCN(C(=O)[C@@H]2C[C@H](N(C(=O)C(C)(C)C)C3CCC(C)(C)CC3)CN2C(=O)[C@@H]2CN(c3nccs3)C[C@H]2c2ccc(Cl)cc2)CC1 [Example 70, N-{(3S,5S)-1-{[(3S,4R)-4-(4-chlorophenyl)-1-(1,3-thiazole-2-yl)pyrrolidin-3-yl]carbonyl}-5-[(4-methylpiperazin-1-yl)carbonyl]pyrrolidin-3-yl}-N-(4,4-dimethylcyclohexyl)-2,2-dimethylpropanamide]
16 | 0.1 to 10 | 0.4 | CN1CCN(C(=O)[C@@H]2C[C@H](N(C(=O)[C@@H]3CCCO3)[C@H]3CC[C@@H](C)CC3)CN2C(=O)[C@@H]2CN(C(C)(C)C)C[C@H]2c2ccc(Cl)cc2)CC1 [Example 16, (2S)-N-{(3S,5S)-1-{[(3S,4R)-1-tert-butyl-4-(4-chlorophenyl)pyrrolidin-3-yl]carbonyl}-5-[(4-methylpiperazin-1-yl)carbonyl]pyrrolidin-3-yl}-N-(cis-4-methylcyclohexyl)tetrahydrofuran-2-carboxamide]
17 | 10 to 100 |  | CN1CCN(C(=O)[C@H]2C[C@H](N(C(=O)C(C)(C)C)[C@H]3CC[C@@H](C)CC3)CN2C(=O)[C@@H]2CN(C(C)(C)C)C[C@H]2c2ccc(F)cc2F)CC1 [Example 33, N-{(3S,5R)-1-{[(3S,4R)-1-tert-butyl-4-(2,4-difluorophenyl)pyrrolidin-3-yl]carbonyl}-5-[(4-methylpiperazin-1-yl)carbonyl]pyrrolidin-3-yl}-2,2-dimethyl-N-(cis-4-methylcyclohexyl)propanamide]
18 | 0.1 to 10 | 10 | Cc1ccc(N2C[C@@H](C(=O)N3C[C@@H](N(C(=O)[C@@H]4CCCO4)C4CCC(C)(C)CC4)C[C@H]3C(=O)N3CCN(C)CC3)[C@H](c3ccc(Cl)cc3)C2)nn1 [Example 43, (2S)-N-{(3S,5S)-1-{[(3S,4R)-4-(4-chlorophenyl)-1-(6-methylpyridazin-3-yl)pyrrolidin-3-yl]carbonyl}-5-[(4-methylpiperazin-1-yl)carbonyl]pyrrolidin-3-yl}-N-(4,4-dimethylcyclohexyl)tetrahydrofuran-2-carboxamide]
19 | 0.1 to 10 |  | CC(C)N1CCN(C(=O)[C@@H]2C[C@H](N(C(=O)[C@@H]3CCCO3)C3CCC(C)(C)CC3)CN2C(=O)[C@@H]2CN(C(C)(C)C)C[C@H]2c2ccc(Cl)cc2)CC1 [Example 13, (2S)-N-{(3S,5S)-1-{[(3S,4R)-1-tert-butyl-4-(4-chlorophenyl)pyrrolidin-3-yl]carbonyl}-5-[(4-isopropylpiperazin-1-yl)carbonyl]pyrrolidin-3-yl}-N-(4,4-dimethylcyclohexyl)tetrahydrofuran-2-carboxamide]
